What was measured:
Assay type in all cases: physicochemical
[1] = pKa determination of the free base (salt screen)
Procedure: A salt screen was conducted to determine if a suitable salt form could be discovered. The pKa of the free base was determined to be less than 2, which limited the range of possible salt coformers. In addition, salts derived from (S)-1-(1-(4-chloro-3-fluorophenyl)-2-hydroxyethyl)-4-(2-((1-methyl-1H-pyrazol-5-yl)amino)pyrimidin-4-yl)pyridin-2(1H)-one free base would have a pHmax less than 2 and would be expected to disproportionate in water. Thus, it was not clear that a crystalline salt could be prepared or that any salt would have acceptable exposure in vivo (an aqueous environment). […] Eventually crystalline salts were obtained from 1,5-naphthalenedisulfonic acid, p-toluenesulfonic acid and benzenesulfonic acid.

[2] = Hygroscopicity, automated vapor sorption (DVS); details: salt form; lower than the tosylate and 1,5-naphthalenedisulfonic acid salt forms; vapor sorption at 25° C., 5 to 95% RH
Procedure: Automated vapor sorption data were collected on a TA Instruments Q5000SA vapor sorption analyzer. NaCl and PVP were used as calibration standards. Samples were not dried prior to analysis. Adsorption and desorption data were collected at 25° C. over a range from 5 to 95% RH at 10% RH increments under a nitrogen purge. Samples were held at the corresponding RH for 1 hour prior to moving to the next RH range. Data were not corrected for the initial moisture content of the samples.

[3] = Solid-form stability against disproportionation in the presence of water; details: compared to the tosylate and naphthalenesulfonic acid salt forms

pKa [1] | pKa of the free base [1] | hygroscopicity [2] | stability [3] | Structure (SMILES)
< 2 | less than 1.8 | – | – | Cn1nccc1Nc1nccc(-c2ccn([C@H](CO)c3ccc(Cl)c(F)c3)c(=O)c2)n1 [VIII, (S)-1-(1-(4-chloro-3-fluorophenyl)-2-hydroxyethyl)-4-(2-(1-methyl-1H-pyrazol-5-ylamino)pyrimidin-4-yl)pyridin-2(1H)-one]
– | – | non-hygroscopicity | enhanced stability | Cn1nccc1Nc1nccc(-c2ccn([C@H](CO)c3ccc(Cl)c(F)c3)c(=O)c2)n1.O=S(=O)(O)c1ccccc1 [besylate salt, (S)-1-(1-(4-Chloro-3-fluorophenyl)-2-hydroxyethyl)-4-(2-((1-methyl-1H-pyrazol-5-yl)amino)pyrimidin-4-yl)pyridin-2(1H)-one, Benzenesulfonate Salt]

From patent US11066389B2, “Process for the manufacturing of medicaments” (Genentech, Inc., priority 2014, dated 2021)
